The record followed here is patent US20150252026A1, “4-(INDOLYL OR BENZIMIDAZOLYL)AMINO-2-(2-(INDOL-3-YL)ETHYL)AMINOPYRIMIDINES USEFUL FOR THE TREATMENT OF CANCER” (NOVIGA RESEARCH AB, priority 2012, published 2015).

Assay [1] concerns acute lymphoblastic leukemia cell line CCRF-CEM. The assay is described as follows: Fluorometric Microculture Cytotoxicity Assay (FMCA) in CCRF-CEM cells. The note with it: Homo sapiens, FMCA after 72 h. The assay is classed as cell-based. An excerpt:
(§1) The Fluorometric Microculture Cytotoxicity Assay, FMCA (Larsson, R., et al.; Anticancer Res, 1989, 9, 1111-1119), is a three day non-clonogenic microplate-based cell viability assay used for measurement of the cytotoxic and/or cytostatic effect of compounds in vitro (Lindhagen, E. et al.; Nat. Protoc., 2008, 3, 1364-1369). FMCA represents a valuable method to measure cytotoxicity in a number of cell types, both cell lines and primary cells from patients (Larsson, R., et al.; Int. J. Cancer, 1992, 50, 177-185; Fridborg, H., et al.; Eur. J. Cancer, 1999. 35, 424-432; Dhar, S., et al.; Br. J. Cancer, 1996, 74, 888-896).
(§2) FMCA is based on the principle that fluorescein diacetate (FDA) is converted to the fluorescent probe fluorescein by esterases […]. For experiments, 96-well microplates are prepared with compounds and stored at −20° C. or −70° C. until use. Cells are then seeded into the drug-prepared plates and placed in an incubator for 72 h. On the last day of incubation, the plates are washed and a buffer containing FDA is added and incubated with the cells for 45 minutes. Finally the fluorescence per well is measured in a fluorometer and a Survival Index % (SI) for each compound-treated well is calculated with the equation: Compound-treated cells minus blank divided by control cells minus blank. A high SI-value indicates a large percentage of living cells and vice versa.
For experiments with compounds of the invention, 96-well plates were prepared as follows:
Compounds were dissolved in DMSO to 10 mM and stored at −20° C. The test compounds were thawed, protected from light, mixed, and 3 μl stock solution was added to test tubes containing 297 μl culture medium RPMI-1640, to give the concentration 100 μM. Then, compounds were serially diluted to concentrations ten times higher than the desired test concentrations. Finally, 20 μl of each compound solution was added in duplicates to wells in two V-bottomed 96-well plates. The plates were stored at −20° C. until use.
On the day of cell seeding, 180 μl of cell suspension was added to each well in the two assay plates. The final concentrations of compounds tested were 10 μM, 1 μM, 0.1 μM and 0.01 μM. The experiment was performed twice.
In subsequent experiments, compounds were tested, along with a number of approved cancer drugs (dasatinib and pazopanib) as described above. The acute lymphoblastic leukemia cell line CCRF-CEM was used throughout. In the assay plates, medium was added to eight empty wells (blank wells) and wells filled with cell suspension served as control wells. SI-values were then calculated for each compound-treated well as described above. All experiments were conducted twice and a new batch of plates was prepared for each experiment.
(§3) To obtain EC50-values, plates were prepared with compounds serially diluted in culture media to suitable concentration ranges for each compound. Thereafter cells were added at a density of 10 000 cells per well and FMCA was performed after 72 h. Data analysis was performed using GraphPadPrism software, where SI values for each concentration were plotted on a log scale and processed with non-linear regression and a standard sigmoidal dose-response model.

Assay [2] deals with A2780 (ovarian cancer). The assay is described as follows: FMCA cell viability in ovarian cancer cell line A2780. The format is cell-based. The settings on record: Homo sapiens; A2780 ovarian cancer cells.
Source text: as §1, §2, §3
(§4) The compounds of the invention were also tested on further cancer cell lines related to ovarian cancer (A2780; see e.g. Hamilton, T. et al.; Semin. Oncol., 1984, 11, 285-298) and multidrug-resistant ovarian cancer (A2780/Adr). The known microtubule interfering agents vincristine and paclitaxel were included as references in the resistant and non-resistant ovarian cancer cell lines.

Assay [3] concerns A2780/Adr (multidrug-resistant ovarian cancer). Description: FMCA cell viability in multidrug-resistant ovarian cancer cell line A2780/Adr. The assay is classed as cell-based. The settings on record: A2780/Adr multidrug-resistant ovarian cancer cells.
Source text: as §1, §2, §3, §4

In assay [4] the test system is bovine tubulin protein. Description: Tubulin polymerization assay kit (Cytoskeleton Inc), fluorescence. The format is biochemical. The settings on record: for inhibitory effects on tubulin polymerization (in words): cell-free, 1, 3 and 10 μM; for pIC50: cell-free, example compounds at 1, 3 and 10 μM, controls at 3 μM, 60 min, read-out: Inhibition of tubulin polymerization IC50. On the procedure:
Example compounds were further tested in a tubulin polymerization assay kit from Cytoskeleton Inc (Denver, Colo., USA). Polymerization is followed by fluorescence enhancement due to the incorporation of a fluorescent reporter into microtubules as polymerization occurs. Vincristine and paclitaxel at 3 μM were used as positive controls for tubulin polymerization inhibition and stabilisation, respectively. All compounds were dissolved in DMSO, which was used as solvent control. For experiments, example compounds (1, 3, and 10 μM) and control compounds (3 μM) were incubated with bovine tubulin protein in a cell-free environment and the fluorescence was then measured in a fluorometer (Fluostar Optima, BMG Labtech, Offenburg, Germany) at 360/450 nm every minute for a total of 60 mins.

Assay [5] relates to colchicine site on tubulin (porcine brain tubulin). The assay is described as follows: Colchicine displacement assay, fluorometric detection. The assay is classed as binding. The settings on record: compound 20 μM, colchicine 2 μM, porcine brain tubulin 2 μM, 2 h; control = colchicine bound to tubulin. On the procedure: To study whether the compounds bind to the colchicine site on tubulin, a colchicine displacement assay using fluorometric detection was performed as previously described (Bhattacharyya B. et al.; Proc Natl Acad Sci USA 1974, 71:2627-31; Risinger A L. et al.; J Pharmacol Exp Ther 2011; 336:652-60). Porcine brain tubulin at 2 μM (Cytoskeleton) in a buffer consisting of 80 mM PIPES, 2 mM MgCl2, 0.5 mM EGTA at pH 7.0 with addition of 1 mM GTP, was incubated alone, with 2 μM colchicine or with 2 μM colchicine in the presence of test compounds or reference compound combretastatin A4 at 20 μM for 2 h in a black half-area 96-well plate (Corning Inc, Corning, N.Y., USA). Thereafter, the fluorescence was measured using a FLUOStar Optima (BMG Labtech) at an excitation of 380 nm and emission of 440 nm. The results are presented as percent of control i.e. colchicine bound to tubulin.

pEC50, pIC50: −log10 of the molar value. Some results are limits rather than exact numbers.

As to `COc1ccc2[nH]cc(CCNc3nc(C)cc(Nc4cccc5c4ccn5C)n3)c2c1` [Example 7, N^2-[2-(5-methoxy-1H-indol-3-yl)ethyl]-6-methyl-N^4-(1-methylindol-4-yl)pyrimidine-2,4-diamine], the figures for the pEC50 in assay [1], in assay [2] and in assay [3] were 7.49, 7.92 and 7.28, respectively.
For the compound `Cc1nc(Nc2ncc(C(=O)Nc3c(C)cccc3Cl)s2)cc(N2CCN(CCO)CC2)n1` [Ref. 1, dasatinib, reference compound], the pEC50 in assay [1] is 5.01.
As to `CC(=O)O[C@H]1C(=O)[C@@]2(C)[C@H]([C@H](OC(=O)c3ccccc3)[C@]3(O)C[C@H](OC(=O)[C@H](O)[C@@H](NC(=O)c4ccccc4)c4ccccc4)C(C)=C1C3(C)C)[C@]1(OC(C)=O)CO[C@@H]1C[C@@H]2O` [Paclitaxel, paclitaxel, reference compound], the pEC50 is 9.59 in assay [2] and 6.09 in assay [3].
With `CCOc1ccc2[nH]cc(CCNc3nc(C)cc(Nc4ccc5cc(C)[nH]c5c4)n3)c2c1` [Example 6], the pEC50 in assay [1] was 7.16; in assay [2] it was 6.77; in assay [3] it was 6.35.
`COc1ccc2[nH]cc(CCNc3nccc(Nc4cccc5c4ncn5C)n3)c2c1` [Example 2, N^2-[2-(5-methoxy-1H-indol-3-yl)ethyl]-N^4-(1-methylbenzimidazol-4-yl)pyrimidine-2,4-diamine]: the pEC50 in assay [1] is 8.01; in assay [2], 8.48; in assay [3] it was 7.77. Besides, in assay [4], the “inhibitory effects on tubulin polymerization (in words)” value (shortened to “inhibitory effects”) was “showed inhibitory effects on tubulin polymerization”. Besides, the pIC50 in assay [4] was 5.52 to 6.00. Also, the “Colchicine-tubulin binding Percent of control” value in assay [5] is listed as 81% of control.
For the compound `CCOc1ccc2[nH]cc(CCNc3nc(C)cc(Nc4cccc5c4ccn5C)n3)c2c1` [Example 8, N^2-[2-(5-ethoxy-1H-indol-3-yl)ethyl]-6-methyl-N^4-(1-methylindol-4-yl)pyrimidine-2,4-diamine], the results for the pEC50 in assay [1], in assay [2] and in assay [3] were 6.96, 7.32 and 6.89, respectively. Further, in assay [4], the “inhibitory effects” value is “showed inhibitory effects on tubulin polymerization”. For the same compound, the pIC50 in assay [4] was ~5.52. In addition, the “Colchicine-tubulin binding Percent of control” value in assay [5] is recorded as 82% of control.
For `CC[C@]1(O)C[C@H]2CN(CCc3c([nH]c4ccccc34)[C@@](C(=O)OC)(c3cc4c(cc3OC)N(C=O)[C@H]3[C@@](O)(C(=O)OC)[C@H](OC(C)=O)[C@]5(CC)C=CCN6CC[C@]43[C@@H]65)C2)C1` [Vincristine, vincristine, reference compound], the results for the pEC50 in assay [2] and in assay [3] were 9.66 and 6.68, respectively. Moreover, the pIC50 in assay [4] was > 5.52.
As for `COc1ccc2[nH]cc(CCNc3nc(C)cc(Nc4ccc5cc(C)[nH]c5c4)n3)c2c1` [Example 5, N^2-[2-(5-methoxy-1H-indol-3-yl)ethyl]-6-methyl-N^4-(2-methyl-1H-indol-6-yl)pyrimidine-2,4-diamine], the values for the pEC50 in assay [1], in assay [2] and in assay [3] were 7.00, 6.89 and 6.40, respectively. Besides, the “inhibitory effects” value in assay [4] is “showed inhibitory effects on tubulin polymerization”. The pIC50 in assay [4] was 5.00 to 5.52.
As for `CCOc1ccc2[nH]cc(CCNc3nccc(Nc4cccc5c4ncn5C)n3)c2c1` [Example 3, N^2-[2-(5-ethoxy-1H-indol-3-yl)ethyl]-N^4-(1-methylbenzimidazol-4-yl)pyrimidine-2,4-diamine], the pEC50 in assay [1] was 8.25; in assay [2] it was 8.04; in assay [3] it was 7.62.
For the compound `CCOc1ccc2[nH]cc(CCNc3nc(C)cc(Nc4ccc5[nH]ccc5c4)n3)c2c1` [Example 4, N^2-[2-(5-ethoxy-1H-indol-3-yl)ethyl]-N^4-(1H-indol-5-yl)-6-methyl-pyrimidine-2,4-diamine], the pEC50 in assay [1] was 6.10; in assay [2], 6.02; in assay [3] it was 6.03. In addition, in assay [4], the pIC50 was < 5.00.
In the case of `CCOc1ccc2[nH]cc(CCNc3nccc(Nc4ccc5c(c4)nc(C)n5C)n3)c2c1` [Example 1, N^4-(1 2-dimethyl-1H-benzo[d]imidazol-5-yl)-N^2-[2-(5-ethoxy-1H-indol-3-yl)ethyl]pyrimidine-2,4-diamine], the pEC50 in assay [1] is 7.92; in assay [2] it was 7.77; in assay [3], 6.42. Also, the “inhibitory effects” value in assay [4] is “showed inhibitory effects on tubulin polymerization”. In addition, the pIC50 in assay [4] was 5.52 to 6.00. The “Colchicine-tubulin binding Percent of control” value in assay [5] is recorded as 95% of control.
With `COc1ccc(/C=C\c2cc(OC)c(OC)c(OC)c2)cc1O` [Combretastatin A4, combretastatin A4, reference compound], the “Colchicine-tubulin binding Percent of control” value in assay [5] is reported as 66% of control.
Compound `Cc1ccc(Nc2nccc(N(C)c3ccc4c(C)n(C)nc4c3)n2)cc1S(N)(=O)=O` [Ref. 2, pazopanib, reference compound] gave a pEC50 in assay [1] of 4.59.

A word on the pEC50: it is −log10 of the EC50, conventionally taken in molar units. A low value points to a high EC50. A word on the pIC50: it is the IC50 on a negative log10 scale, so that one unit is a factor of ten.
